Holding throughout (assay): relative viability (nuclei count vs DMSO), 5 days (fraction); higher = more cells survive
Compound in the assay “XMD8-85 + OSI-027”: CN1CCN(CC1)C2=CC(=C(C=C2)NC3=NC=C4C(=N3)N(C5=CC=CC=C5C(=O)N4C)C)OC [XMD8-85] + COc1cccc2cc(-c3nc([C@H]4CC[C@H](C(=O)O)CC4)n4ncnc(N)c34)[nH]c12 [OSI-027] (partner 0.5 µM)
The gist of the method: (§1)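 Lung cancer cell lines, seeded in 1536-well plates, were treated the following day by pin tool with a single drug or with five library-drug doses (not always all listed) in √10 steps on top of a fixed anchor-drug dose. Cells were fixed and nuclei stained in one step after 5 days, and nuclei were counted. Relative viability is the nuclei count for treated wells divided by that for vehicle wells, reported as medians of duplicate plates.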

Compound in the assay “4EGI-1 + Alpelisib”: O=C(O)C(Cc1ccccc1[N+](=O)[O-])=NNc1nc(-c2ccc(Cl)c(Cl)c2)cs1 (mixture of isomers) [4EGI-1] + Cc1nc(NC(=O)N2CCC[C@H]2C(N)=O)sc1-c1ccnc(C(C)(C)C(F)(F)F)c1 [Alpelisib] (partner 2 µM)
The gist of the method: as §1

Compound in the assay “4EGI-1 + Dasatinib”: O=C(O)C(Cc1ccccc1[N+](=O)[O-])=NNc1nc(-c2ccc(Cl)c(Cl)c2)cs1 (mixture of isomers) [4EGI-1] + Cc1nc(Nc2ncc(C(=O)Nc3c(C)cccc3Cl)s2)cc(N2CCN(CCO)CC2)n1 [Dasatinib] (partner 0.075 µM)
The gist of the method: as §1

Compound in the assay “4EGI-1 + Phenformin”: O=C(O)C(Cc1ccccc1[N+](=O)[O-])=NNc1nc(-c2ccc(Cl)c(Cl)c2)cs1 (mixture of isomers) [4EGI-1] + N=C(N)NC(=N)NCCc1ccccc1 [Phenformin] (partner 250 µM)
The gist of the method:
as §1

Among the data in the supplement of paper PMC10307832 are relative viability values, retold here.

Take NCI-H1792: the relative viability was determined as 0.856 with XMD8-85 + OSI-027 (first compound 0.253 µM); 0.981 in the assay with XMD8-85 + OSI-027 (first compound 2.53 µM); 0.896 with XMD8-85 + OSI-027 (first compound 8 µM); 0.765 in the assay with 4EGI-1 + Alpelisib (first compound 0.5 µM); 0.684 with 4EGI-1 + Alpelisib (first compound 1.581 µM); 0.667 with 4EGI-1 + Alpelisib (first compound 5 µM). Moreover, the relative viability worked out at 0.533 in the assay with 4EGI-1 + Alpelisib (first compound 15.81 µM); 0.469 in the assay with 4EGI-1 + Alpelisib (first compound 50 µM); 1.03 with 4EGI-1 + Dasatinib (first compound 0.5 µM); 0.797 with 4EGI-1 + Dasatinib (first compound 1.581 µM); 0.74 in the assay with 4EGI-1 + Dasatinib (first compound 5 µM); 0.712 with 4EGI-1 + Dasatinib (first compound 15.81 µM). For the same cell line, the relative viability is 0.671 with 4EGI-1 + Dasatinib (first compound 50 µM); 0.285 with 4EGI-1 + Phenformin (first compound 0.5 µM); 0.462 with 4EGI-1 + Phenformin (first compound 1.581 µM); 0.41 with 4EGI-1 + Phenformin (first compound 5 µM); 0.322 with 4EGI-1 + Phenformin (first compound 15.81 µM); 0.378 with 4EGI-1 + Phenformin (first compound 50 µM).
